Results from patent US20110217337A1, “BIOACTIVE AGENT FOR BONE TISSUE ENGINEERING” (UNIVERSITY OF CONNECTICUT, priority 2010, published 2011).

How the values were obtained:
phophodiesterase = settings: cited from earlier work
Runx2 = Runx2 expression by SDS-PAGE and Western blotting; assay type: cell-based; settings: day 21
Description: FIG. 4. […] It is thought that Runx2 serves as a gatekeeper to promote osteogenesis, thus it is one of the most important marker for osteogenesis. In the control panel, consistent with the reported data in literature, Runx2 was detected in the presence of osteogenic medium but remain undetectable level without the osteogenic medium. […] The blot of tubulin serves as loading control for each sample loading.
Differentiation: Osteogenic protein markers were analyzed SDS-PAGE and Western Blotting. Protein samples were resolved by SDS-PAGE on precast 12.5% […] gels (Bio-Rad, Hercules, Calif.) and transferred electrophoretically onto polyvinylidene difluoride membranes according to the manufacturer's instructions (Bio-Rad, Hercules, Calif.). Membranes were blocked with skim milk and then probed with respective antibodies. […]
MC3T3E1 cells expressed classic markers for the osteoblastic phenotype in the presence of 6-Bnz-cAMP in the absence of osteogenic medium in samples collected at day 21. The level of Runx2, a bone-specific transcription factor which increases bone formation through the stimulation of bone-marker gene transcription in osteoblasts, was detected by immunoblotting (FIG. 4). In the control panel, Runx2 was detected in the presence of osteogenic medium but remain undetectable level without the osteogenic medium. […]

## O=C(Nc1ncnc2c1ncn2C1O[C@@H]2COP(=O)([O-])O[C@H]2[C@H]1O)c1ccccc1.[Na+] (stereo partly drawn) [6-Bnz-cAMP, N^6-Benzoyladenosine-3′,5′-cyclic monophosphate]
phophodiesterase
  hydrolysis by phophodiesterase: resistant to hydrolysis
Runx2; 100 μM, absence of osteogenic medium
  expression of Runx2: induces the expression of Runx2
Runx2; osteogenic medium together with 6-Bnz-cAMP, vs 6-Bnz-cAMP alone
  expression of Runx2: further enhanced the expression of Runx2
